# Results reported in patent publication US8389679B2, “Targeted antimicrobial moieties” (priority 2009, dated 2013).
# Where no end group is shown, it is not given here.
# Tested on: S. mutans biofilms
# Experiment: Binding of targeting peptides by fluorescent microscopy
# Set-up: species or system Streptococcus mutans
# Conditions: 25 μM peptide, 5 min; data not shown
# Description: Binding of Targeting Peptides. The binding of peptides 1—2, 1—3, 1—4, 1—6, 2—1, and 3—1 was assessed by fluorescent microscopy. S. mutans UA159 was grown overnight and diluted 1:5000 in fresh TH with 1% sucrose before seeding to 96-well plates (flat bottom). Biofilms were grown 24 h and the spent medium replaced with 1×PBS containing 25 μM peptide. After 5 min incubation at room temperature, the supernatants were removed and the biofilms washed 2× with 1×PBS and imaged by bright-field and fluorescence microscopy (Nikon E400). Digital images were collected and analyzed for semiquantitative binding assessments with the manufacturers supplied software (SPOT, Diagnostics) (6).
row,Substance,binding to S. mutans biofilms
1,FIKHFIHRF [2_1],retain biofilm binding
2,LIKHILHRL [3_1],retain biofilm binding
3,WWHSWWSTW [1_2],retain biofilm binding
4,WWKDWWERW [1_4],retain biofilm binding
5,WWQDWWNEW [1_6],retain biofilm binding
6,WWSYWWTQW [1_3],retain biofilm binding

# Tested on: S. mutans
# Experiment: not given
# Conditions: not given
Substance,S. mutans (MIC),concentration active against S. mutans (MIC)
"FHFHLHFAGAFIKHFIHRF-NH2 [135(L13)2_1, FHFHLHFAGAFIKHFIHRF]",32 µg/mL,–
FHFHLHFGAGAGFIKHFIHRF-NH2 [135(L14)2_1],32 µg/mL,–
"FHFHLHFGGGFIKHFIHRF-NH2 [135(L1)2_1, FHFHLHFGGGFIKHFIHRF]",16 µg/mL,lower than 100 μg/mL
FHFHLHFGGGGFIKHFIHRF-NH2 [135(G4)2_1],16 µg/mL,–
FHFHLHFGGGGGFIKHFIHRF-NH2 [135(G5)2_1],16 µg/mL,–
FHFHLHFGGGGGGFIKHFIHRF-NH2 [135(G6)2_1],32 µg/mL,–
FHFHLHFGGGGGGGFIKHFIHRF-NH2 [135(G7)2_1],32 µg/mL,–
"FHLHFHFGGGFRHIFHKIF-NH2 [135i(L1)2_1i, FHLHFHFGGGFRHIFHKIF]",16 µg/mL,–
"FRHIFHKIFGGGFHLHFHF-NH2 [2_1i(L1)135i, FRHIFHKIFGGGFHLHFHF]",16 µg/mL,–

# Same assay, conditions: Library 2 STAMPs; all S. mutans isolates tested, minimum of three independent trials
row,Substance,S. mutans (MIC)
1,FHFHLHFGSGSGFIKHFIHRF-NH2 [135(L12)2_1],32 µg/mL
2,"FHFHLHFSGSFIKHFIHRF-NH2 [135(L11)2_1, FHFHLHFSGSFIKHFIHRF]",32 µg/mL
